Measured values as given in US9926354B2, “Amyloid precursor protein (APP) based Ã#-secretase inhibitor peptides, and methods of use” (UNIVERSITY OF SOUTH FLORIDA, priority 2014, dated 2018).

What was measured:
[1] = tested on: CHO cells over-expressing human Swedish mutant APP (CHO/APPswe); assay: Aβ and sAPPα production in cultured media of CHO/APPswe cells by ELISA; format: cell-based, Chinese hamster; settings: 20 μg/mL, 24 hours
Method: (§1) Cell Culture—Chinese hamster ovary (CHO) cells engineered to express wild-type human APP (CHO/APPwt cells) or Swedish mutant human APP (CHO/APPswe cells) were kindly provided by Dr. Stefanie Hahn and Dr. Sascha Weggen (University of Heinrich Heine, Dusseldorf, Germany). As described previously (Obregon et al., 2012), these cells were cultured in Dulbecco's modified Eagle's medium (DMEM) with 10% fetal bovine serum (FBS), 1 mM sodium pyruvate, and 100 units/mL of penicillin and streptomycin.
(§2) To confirm the binding of APPsweBBP with BACE1, CHO/APPwt cells were plated in 8-well chambers (5×10^5/well), incubated with TAT-APPsweBBP-biotin or APPsweBBP-biotin at 20 μM for 30 minutes, fixed with 4% paraformaldehyde for 20 minutes, washed and permeabilized with 0.5% Triton X-100. Following application of blocking buffer, these cells were stained with mouse anti-BACE1 and rabbit anti-biotin antibodies overnight at 4° C. for immunocytochemistry analysis. In order to determine the inhibitory effects of TAT-APPsweBBP on BACE1-mediated APP β-cleavage and subsequent Aβ production, both CHO/APPwt and CHO/APPswe cells were plated in 24 well-plates (3×10^5/well) and treated with TAT-APPsweBBP at 0-20 μM for 24 hours. The cultured media were collected for Aβ analysis by enzyme-linked immunosorbent assay (ELISA) and sAPPα analysis by ELISA and Western blot (WB). Cell lysates were also prepared for analysis of APP amyloidogenic processing by WB.
(§3) ELISA—Mouse brains were homogenized in ice-cold lysis buffer for 30 seconds using a Minilys tissue homogenizer (Bertin Technologies, Montigny-le-Bretonneux, France) set at high speed, allowed to stand for 15 minutes at 4° C., and centrifuged at 15,000 rpm for 30 minutes. Soluble Aβ1-40/42 species and sAPPα were directly detected in cultured cell media or brain homogenates using the Aβ1-40/42 (Invitrogen) and sAPPα ELISA kits (IBL-America, Minneapolis, Minn., USA).
(§4) To further examine the ability of the Swedish mutant APP BACE1 binding peptide/Tat fusion peptides to decrease Aβ production, CHO cells overexpressing either human wild-type APP (CHO/APPwt cells) or Swedish mutant APP (hereinafter referred to as “CHO/APPswe cells”) are treated with a variety of APP-based BACE1 inhibitor peptides, as shown in Table 1 and Table 2. Aβ production is determined using ELISA.

[2] = tested on: CHO cells over-expressing human wild-type APP (CHO/APPwt); assay: Aβ and sAPPα production in cultured media of CHO/APPwt cells by ELISA (24 hours); format: cell-based, Chinese hamster; settings: 20 μg/mL
Method: as §1
as §2, with “In order to determine the inhibitory effects of TAT-APPsweBBP on BACE1-mediated APP β-cleavage and subsequent Aβ production, both CHO/APPwt and CHO/APPswe cells were plated in 24 well-plates (3×10^5/well) and treated with TAT-APPsweBBP at 0-20 μM for 24 hours.” left out
as §3, §4

BACE1 = BACE1 (Homo sapiens, UniProt P56817); assay: BACE1 activity assay (FRET, cell-free); format: biochemical; set-up: purchased Pan Vera Co., Madison, Wis., USA; settings: peptide final concentration 20 μM, 90 minutes, room temperature
Method: BACE1 Activity Assay—The BACE1 inhibiting activity of APP-based BACE1 site binding peptides were determined using a fluorescence resonance energy transfer (FRET) assay (Pan Vera Co., Madison, Wis., USA), which employs a recombinant baculovirus-expressed BACE1 and a specific substrate (Rh-[…]-quencher) that is based on the APPswe mutation. This specific peptide substrate becomes highly fluorescent upon enzymatic cleavage. A mixture of 10 μL of BACE1 (1.0 U/mL in 50 mM Tris, pH7.5, 10% glycerol), 10 μL of FRET-substrate, and 10 μL of the various APP-based BACE1 site binding peptides (final concentration 20 μM) were incubated for 90 minutes in the dark at room temperature. Then, 10 μL of BACE1 stop buffer (2.5 M sodium acetate) was added to the mixture. Fluorescence was read using a fluorometer, with excitation at 545 nm and emission at 585 nm.
As a required enzyme for the generation of neurotoxic Aβ from APP, BACE1 is well established as an important mediator of AD β-amyloid pathology. As such, it has become an important target for new disease modifying therapeutics. However, since BACE1 also has important physiological roles, abolishment of the enzyme or its activity may lead to deleterious side effects as evidenced by numerous failed clinical trials discussed previously. […] Since previous studies have established a close relationship between α-helix structure and peptide-protein (or protein-protein) interactions (Azzarito, 2013; Rao et al., 2013), several APP based peptides were synthesized that might serve as a preferable substrate for BACE1. Importantly, these peptides were free of the Aβ-containing segment and, thus, cannot be amyloidogenic. In theory, these could be used to “hijack” the BACE1 processing of endogenous APP and lead to a decrease in cerebral Aβ. These BACE1 substrates and controls were incubated with recombinant BACE1 and percent of inhibition of the enzyme was calculated. […] These findings indicate that the α-helical TAT fusion domain may help to promote selective APPsweBBP proteolysis by BACE1, yielding substrate competition against human wild-type APP.

Sequence of BACE1 (P56817 46-501): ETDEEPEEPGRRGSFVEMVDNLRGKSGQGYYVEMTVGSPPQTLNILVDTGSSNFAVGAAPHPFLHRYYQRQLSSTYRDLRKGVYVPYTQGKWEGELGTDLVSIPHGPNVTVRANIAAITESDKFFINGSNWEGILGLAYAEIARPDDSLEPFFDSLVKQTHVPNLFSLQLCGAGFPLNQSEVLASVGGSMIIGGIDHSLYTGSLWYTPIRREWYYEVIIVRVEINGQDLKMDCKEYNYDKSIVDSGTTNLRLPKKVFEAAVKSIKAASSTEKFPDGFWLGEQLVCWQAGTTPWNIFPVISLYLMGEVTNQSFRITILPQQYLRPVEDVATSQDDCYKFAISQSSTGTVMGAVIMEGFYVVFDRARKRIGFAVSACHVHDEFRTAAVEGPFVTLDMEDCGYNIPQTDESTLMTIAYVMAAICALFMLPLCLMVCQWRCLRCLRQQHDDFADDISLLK

Sequence	Secreted Aβ40 (ng/mg; mean ± SD) [1] [ng/mg]	Secreted Aβ42 (ng/mg; mean ± SD) [1] [ng/mg]	Secreted sAPPα (ng/mg; mean ± SD) [1] [ng/mg]	Secreted Aβ40 (ng/mg; mean ± SD) [2] [ng/mg]	Secreted Aβ42 (ng/mg; mean ± SD) [2] [ng/mg]	Secreted sAPPα (ng/mg; mean ± SD) [2] [ng/mg]	% of inhibition (mean ± SD) of BACE1 (BACE1) [%]
YGRKKRRQRRREISEVKMDAEFR (human-virus fusion) [APPwtBBP/TTD2]	40.32 ± 8.43	6.78 ± 0.92	267.92 ± 15.88	6.53 ± 0.81	0.68 ± 0.034	5291.14 ± 142.75	21.01 ± 1.42
EISEVKMDAEFR (listed as Homo sapiens) [APPwtBBP]	59.84 ± 11.23	9.78 ± 1.07	201.65 ± 11.54	10.89 ± 0.76	1.18 ± 0.051	4762.21 ± 164.89	16.23
YGRKKRRQRRREVKMDAEFR (human-virus fusion) [APPwtBBP/TTD3]	57.45 ± 13.11	9.56 ± 1.11	201.23 ± 21.23	10.12 ± 1.11		4699.15 ± 155.92	
YGRKKRRQRRRIKTEEISEVKMDAEFR (human-virus fusion) [APPwtBBP/TTD1]	64.21 ± 12.12	7.82 ± 0.67	229.45 ± 12.73	9.32 ± 0.68	1.01 ± 0.052	4688.12 ± 109.65	
YGRKKRRQRRREVNLDAEFR (human-virus fusion) [APPsweBBP/TTD3]	41.87 ± 5.76	8.43 ± 0.95	211.37 ± 18.93	8.74 ± 0.55	0.93 ± 0.048	5001.45 ± 271.34	
IKTEEISEVKMDAEFR (listed as Homo sapiens) [APPwtBBP1]	62.43 ± 9.43	8.91 ± 0.83	217.35 ± 17.32	11.23 ± 0.89	1.23 ± 0.043	4874.42 ± 174.56	
EVNLDAEFR (listed as Homo sapiens) [APPsweBBP3]		7.12 ± 0.84	231.26 ± 14.28	10.23 ± 0.73	0.92 ± 0.041	4709.43 ± 123.74	14.32 ± 0.04
EVKMDAEFR (listed as Homo sapiens) [APPwtBBP3]	61.36 ± 8.34	10.93 ± 1.98	199.83 ± 14.65	11.43 ± 1.01	1.09 ± 0.061	4699.78 ± 178.43	4.89 ± 0.06
